According to US10590276B2, “Aqueous suspension of inorganic particulate material” (ImerTech SAS, priority 2013, dated 2020):

Key:
[1] = pH recovery of calcium carbonate slurry after lowering to pH 8 with CO2 enriched air (Example 1); assay type: physicochemical
From the text: The pH of the aqueous suspension may be measured using any conventional pH meter. […] This may be carried out using either a manual or automatic method, depending on the type of instrument being used.
(§1) The pH of the aqueous suspension may be measured by: • mixing a sample of the aqueous suspension to ensure homogeneity, by using either the bench stirrer or the rotating rollers, or by shaking the sample container and contents vigorously; • measuring the temperature of the sample and adjusting the temperature to 22° C.; • removing the pH electrode from its deionised water storage solution and immersing it carefully into the test slurry; • waiting until a stable pH reading is obtained; • recording the pH value of the undisturbed slurry. Viscosity
1 kg samples of a calcium carbonate slurry having 78 wt % solids and 60% of particles less than 2 μm in size (measured using a micrometrics sedigraph) were adjusted to […] at room temperature using 2-amino-2-methyl-1-propanol (AMP) or dimethylethanolamine (DMEA). The control sample was adjusted to pH 10 using dilute sodium hydroxide solution. The solids content of the samples was adjusted using deionised water.
The pH of each slurry was lowered to pH 8 by aspirating the sample with carbon dioxide (CO2) enriched air (2%) using a flow rate of 5 mL/min. When pH 8 had been reached, aspiration of the sample was stopped.
Recovery of the sample pH was then monitored and recorded over subsequent days using the Mettler Toledo FE20 pH meter as described above in the detailed description.

[2] = pH of calcium carbonate slurry after sequential 50 mg/kg additions (Example 2); assay type: physicochemical; settings: for δ pH: change per 50 mg/kg aliquot
From the text: The pH of the aqueous suspension may be measured using any conventional pH meter. For example, the pH of the aqueous suspension may be measured using the Digital pH meter “Mettler Toledo FE20”, which has been calibrated in accordance with the manufacturer's instructions, using buffer solutions with nominal values of 4, 7 and 9. This may be carried out using either a manual or automatic method, depending on the type of instrument being used.
as §1
50 mg/kg aliquots of either AMP or DMEA were sequentially added to 250 g calcium carbonate slurry samples having 78 wt % solids and 60% of particles less than 2 μm in size (measured using a micrometrics sedigraph). In this context, 50 mg/kg means that 50 mg of AMP or DMEA was added per kg of dry inorganic particulate material in the aqueous suspension. The pH of the samples was measured after stirring immediately after each 50 mg/kg addition.

Q: What does the source list for `CC(C)(N)CO` [AMP, 2-amino-2-methyl-1-propanol, reference compound]?
A: pH of sample ([1]; day 0, before CO2 aspiration): 9.50; δ pH ([1]; day 0.5): 0.00; pH of sample ([1]; day 0.5, lowered to pH 8 with CO2): 8.00; pH of sample ([1]; day 1): 8.16; δ pH ([1]; day 1): 0.13; pH of sample ([1]; day 2): 8.26; δ pH ([1]; day 2): 0.23; pH of sample ([1]; day 16): 8.46; δ pH ([1]; day 16): 0.43; pH of sample ([1]; day 20): 8.50; δ pH ([1]; day 20): 0.47; pH of sample ([1]; day 23): 8.52; δ pH ([1]; day 23): 0.49; pH of sample ([1]; day 24): 8.58; δ pH ([1]; day 24): 0.55; pH of sample ([1]; day 27): 8.61; δ pH ([1]; day 27): 0.58; pH of sample ([1]; day 28): 8.66; δ pH ([1]; day 28): 0.66; δ pH ([2]; total 50 mg/kg added): 0.27; pH of sample ([2]; total 50 mg/kg of chemical added): 9.28; δ pH ([2]; total 100 mg/kg added): 0.21; pH of sample ([2]; total 100 mg/kg of chemical added): 9.49; δ pH ([2]; total 150 mg/kg added): 0.15; pH of sample ([2]; total 150 mg/kg of chemical added): 9.64; δ pH ([2]; total 200 mg/kg added): 0.14; pH of sample ([2]; total 200 mg/kg of chemical added): 9.78; δ pH ([2]; total 250 mg/kg added): 0.14; pH of sample ([2]; total 250 mg/kg of chemical added): 9.92; δ pH ([2]; total 300 mg/kg added): 0.09; pH of sample ([2]; total 300 mg/kg of chemical added): 10.01; δ pH ([2]; total 350 mg/kg added): 0.07; pH of sample ([2]; total 350 mg/kg of chemical added): 10.08; δ pH ([2]; total 400 mg/kg added): 0.07; pH of sample ([2]; total 400 mg/kg of chemical added): 10.15; δ pH ([2]; total 450 mg/kg added): 0.07; pH of sample ([2]; total 450 mg/kg of chemical added): 10.22; δ pH ([2]; total 500 mg/kg added): 0.05; pH of sample ([2]; total 500 mg/kg of chemical added): 10.27; δ pH ([2]; total 550 mg/kg added): 0.05; pH of sample ([2]; total 550 mg/kg of chemical added): 10.32; δ pH ([2]; total 600 mg/kg added): 0.05; pH of sample ([2]; total 600 mg/kg of chemical added): 10.37
